# According to article PMC13114161 (Antibiotics, 2026):
# pIC50: −log10 of the molar value. Where two headings read alike, the source gives them in different places.
# Tests used:
# [1] = tested on: P. aeruginosa ATCC 27853; assay: MIC and levofloxacin potentiation (broth microdilution); assay type: cell-based, Pseudomonas aeruginosa; conditions: for MIC: Pseudomonas aeruginosa, ATCC27853
# [2] = tested on: multidrug-resistant P. aeruginosa clinical isolates from the CDC-FDA; assay: Levofloxacin MIC potentiation, CDC-FDA isolates; assay type: cell-based, Pseudomonas aeruginosa; conditions: for Levofloxacin MIC fold difference, +EPI / Levofloxacin MIC, +EPI: EPI […] (TXA11114, TXA09155) or 50 μg/mL (MC-04,124, PAβN)
# Method: In a comparative study, the levofloxacin-potentiating activity of TXA11114 was evaluated alongside the well-characterized EPIs PAβN and MC-04,124 using P. aeruginosa clinical isolates obtained from the CDC and FDA Antimicrobial Resistance Isolate Bank and the Walter Reed Army Institute of Research (WRAIR). […] While PAβN has been widely studied in laboratory strains, its activity against the CDC/FDA P. aeruginosa panel has been reported only sparingly, limiting direct cross-study comparisons.
# (§1) MIC assays for potentiation of antimicrobial activity against P. aeruginosa were performed as described previously.
# [3] = tested on: P. aeruginosa DA7232 (gyrA-T83I, parC-S80L); assay: Levofloxacin MIC potentiation; assay type: cell-based, Pseudomonas aeruginosa; conditions: DA7232; […] TXA11114
# Method: as §1
# [4] = tested on: P. aeruginosa CDC AR-0232, AR-0248, AR-0249; assay type: cell-based, Pseudomonas aeruginosa
# Method: Frequency-of-resistance studies were carried out as described previously.
# [5] = molecular target: T1, CYP1A2 (Homo sapiens, UniProt P05177); assay: Cytochrome P450 inhibition; assay type: in vitro ADME; conditions: human liver microsomes; read-out: CYP Inhibition IC50, 1A2
# T1 construct: from tissue; host or cells: human liver microsomes
# Method: (§2) Inhibition of CYP1A2, CYP2D6, CYP2C9, CYP2C19, and CYP3A4 by TXA11114 was assessed in human liver microsomes by measuring the inhibition of probe substrate metabolism. Phenacetin, bufuralol, diclofenac, S-mephenytoin, and midazolam were used as probe substrates for CYP1A2, CYP2D6, CYP2C9, CYP2C19, and CYP3A4, respectively. Corresponding metabolites (acetaminophen, OH-bufuralol, 4-OH diclofenac, 4-OH mephenytoin, and 1-OH midazolam) were quantified by LC-MS/MS. Selective inhibitors (fluvoxamine (CYP1A2), quinidine (CYP2D6), sulfaphenazole (CYP2C9), ticlopidine (CYP2C19), and ketoconazole (CYP3A4)) were used as positive controls. Test and control compounds, prepared in DMSO at various concentrations, were spiked into 2× microsomal reaction mixtures, and 50 µL aliquots were transferred to individual wells. Probe substrates (25 µL, 4× concentration) were added to the respective wells and pre-incubated for 5 min at 37 °C. Reactions were initiated by the addition of 25 µL NADPH (4×) and incubated for 5 min (CYP3A4), 10 min (CYP1A2, CYP2D6, CYP2C9), or 20 min (CYP2C19). Reactions were quenched with 100 µL ice-cold acetonitrile containing glipizide as an internal standard. Plates were centrifuged at 4000 rpm for 15 min, and 100 µL supernatants were analyzed by LC-MS/MS in MRM mode. […] Percent inhibition was calculated as 100 − percent activity. IC50 values were determined using GraphPad Prism (version 5.02).
# [6] = molecular target: T2, CYP2C19 (Homo sapiens, UniProt P33261); assay: Cytochrome P450 inhibition; assay type: in vitro ADME; conditions: human liver microsomes; read-out: CYP Inhibition IC50, 2C19
# T2 construct: from tissue; host or cells: human liver microsomes
# Method: as §2
# [7] = molecular target: T3, CYP2C9 (Homo sapiens, UniProt P11712); assay: Cytochrome P450 inhibition; assay type: in vitro ADME; conditions: human liver microsomes; read-out: CYP Inhibition IC50, 2C9
# T3 construct: from tissue; host or cells: human liver microsomes
# Method: as §2
# [8] = tested on: P. aeruginosa ATCC 27853; assay: Neutropenic murine thigh infection model; assay type: in vivo, CD-1 mice
# Method: Female CD-1 mice (6–8 weeks old; 22 ± 2 g) were obtained from Envigo Laboratories, quarantined for at least 3 days, and housed 5 per cage in accordance with the approved IACUC protocol (IACUC-2017-0049). Neutropenia was induced by intraperitoneal (IP) administration of cyclophosphamide (Cytoxan) at 150 mg/kg on day 4 and 100 mg/kg on day 1 prior to infection.
# Mice were infected intramuscularly (IM) in the right thigh with 0.1 mL of bacterial suspension containing approximately 1 × 10^5–10^6 CFU/mL. […] At 2 h or 24 h post-infection, mice were euthanized by CO2 asphyxiation, and thighs were aseptically excised and placed in 2 mL sterile phosphate-buffered saline (PBS) on ice. Tissue homogenization was performed using a Polytron PT10-35 (12 mm aggregate, Kinematica, Malters, Switzerland).
# Plates were incubated overnight at 37 °C, and colonies were enumerated the following day.
# [9] = combined CDC/FDA and WRAIR MDR isolate sets
# [10] = +24 hr, TXA11114 30 mg/kg IV QID alone
# T2 sequence (P33261 whole entry): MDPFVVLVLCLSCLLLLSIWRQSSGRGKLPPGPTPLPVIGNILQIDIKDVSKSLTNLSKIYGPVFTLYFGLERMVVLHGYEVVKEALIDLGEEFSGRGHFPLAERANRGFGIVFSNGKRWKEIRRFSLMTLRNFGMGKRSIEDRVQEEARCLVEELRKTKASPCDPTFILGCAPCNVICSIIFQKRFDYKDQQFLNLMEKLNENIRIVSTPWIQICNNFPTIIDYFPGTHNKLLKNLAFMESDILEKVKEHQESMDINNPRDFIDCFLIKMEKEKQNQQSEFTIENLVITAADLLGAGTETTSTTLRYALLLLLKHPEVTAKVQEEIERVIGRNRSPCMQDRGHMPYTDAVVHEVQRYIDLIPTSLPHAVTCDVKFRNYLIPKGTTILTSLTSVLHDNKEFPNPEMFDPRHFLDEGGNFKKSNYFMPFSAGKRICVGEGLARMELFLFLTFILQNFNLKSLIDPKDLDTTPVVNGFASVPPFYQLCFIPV
# T1 sequence (P05177 whole entry): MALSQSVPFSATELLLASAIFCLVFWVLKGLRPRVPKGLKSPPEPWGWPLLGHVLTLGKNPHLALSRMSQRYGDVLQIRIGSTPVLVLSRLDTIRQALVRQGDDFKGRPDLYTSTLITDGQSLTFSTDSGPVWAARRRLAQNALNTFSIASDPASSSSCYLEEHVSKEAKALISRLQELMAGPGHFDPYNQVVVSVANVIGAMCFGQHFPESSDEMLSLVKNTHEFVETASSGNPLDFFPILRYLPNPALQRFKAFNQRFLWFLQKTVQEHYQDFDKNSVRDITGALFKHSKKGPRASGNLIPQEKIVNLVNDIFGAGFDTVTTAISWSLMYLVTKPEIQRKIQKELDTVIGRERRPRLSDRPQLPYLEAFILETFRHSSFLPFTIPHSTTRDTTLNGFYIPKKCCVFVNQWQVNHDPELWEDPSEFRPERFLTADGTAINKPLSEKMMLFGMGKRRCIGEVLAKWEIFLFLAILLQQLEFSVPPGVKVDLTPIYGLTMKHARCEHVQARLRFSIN
# T3 sequence (P11712 whole entry): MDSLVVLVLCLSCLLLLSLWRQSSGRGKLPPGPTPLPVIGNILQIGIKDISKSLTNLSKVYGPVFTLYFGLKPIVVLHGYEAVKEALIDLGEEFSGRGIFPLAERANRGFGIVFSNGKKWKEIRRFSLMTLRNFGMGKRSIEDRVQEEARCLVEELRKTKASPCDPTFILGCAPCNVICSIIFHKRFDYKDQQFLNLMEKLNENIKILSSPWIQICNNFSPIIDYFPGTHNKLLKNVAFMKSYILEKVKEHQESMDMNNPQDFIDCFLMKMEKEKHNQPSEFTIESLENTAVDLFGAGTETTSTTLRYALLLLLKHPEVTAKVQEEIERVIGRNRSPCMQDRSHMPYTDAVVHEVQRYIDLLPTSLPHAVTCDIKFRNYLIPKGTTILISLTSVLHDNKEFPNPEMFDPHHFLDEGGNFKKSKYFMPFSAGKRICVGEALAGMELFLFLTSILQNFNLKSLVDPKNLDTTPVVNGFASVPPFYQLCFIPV
compound,measurement,setting,value
"NCC(F)C[C@@H](N)CNC(=O)c1cc2ccc(-c3ccc(F)cc3)cc2[nH]1 (stereo partly drawn) [TXA11114, N-((2R)-2,5-diamino-4-fluoropentyl)-6-(4-fluorophenyl)-1H-indole-2-carboxamide]",Fold MIC reduction [LVX/EPI-LVX],"[1]; EPI at […], ATCC 27853",8 fold
same,MIC,"[1]; ATCC 27853 parent strain (Table S1), read-out: MIC",100 µg/mL
same,MIC,"[1]; EPI alone, ATCC 27853, read-out: EPI MIC",100 µg/mL
same,LVX MIC (+EPI),"[1]; levofloxacin MIC with EPI at […], ATCC 27853",0.125 µg/mL
same,"Levofloxacin MIC fold difference, +EPI",[2]; AR-0229,32 fold
same,"Levofloxacin MIC, +EPI",[2]; AR-0229,2 µg/mL
same,"Levofloxacin MIC fold difference, +EPI",[2]; AR-0232,16 fold
same,"Levofloxacin MIC, +EPI",[2]; AR-0232,0.5 µg/mL
same,"Levofloxacin MIC fold difference, +EPI",[2]; AR-0233,8 fold
same,"Levofloxacin MIC, +EPI",[2]; AR-0233,0.5 µg/mL
same,"Levofloxacin MIC fold difference, +EPI",[2]; AR-0234,32 fold
same,"Levofloxacin MIC, +EPI",[2]; AR-0234,0.25 µg/mL
same,"Levofloxacin MIC fold difference, +EPI",[2]; AR-0239,4 fold
same,"Levofloxacin MIC, +EPI",[2]; AR-0239,8 µg/mL
same,"Levofloxacin MIC fold difference, +EPI",[2]; AR-0242,4 fold
same,"Levofloxacin MIC, +EPI",[2]; AR-0242,2 µg/mL
same,"Levofloxacin MIC fold difference, +EPI",[2]; AR-0244,"8, (8) fold"
same,"Levofloxacin MIC, +EPI",[2]; AR-0244,"8, (8) μg/mL"
same,"Levofloxacin MIC fold difference, +EPI",[2]; AR-0246,"8, (8) fold"
same,"Levofloxacin MIC, +EPI",[2]; AR-0246,"8, (8) μg/mL"
same,"Levofloxacin MIC fold difference, +EPI",[2]; AR-0248,8 fold
same,"Levofloxacin MIC, +EPI",[2]; AR-0248,2 µg/mL
same,"Levofloxacin MIC fold difference, +EPI",[2]; AR-0249,16 fold
same,"Levofloxacin MIC, +EPI",[2]; AR-0249,4 µg/mL
same,"Levofloxacin MIC fold difference, +EPI",[2]; AR-0252,8 fold
same,"Levofloxacin MIC, +EPI",[2]; AR-0252,4 µg/mL
same,"Levofloxacin MIC fold difference, +EPI",[2]; AR-0253,16 fold
same,"Levofloxacin MIC, +EPI",[2]; AR-0253,0.125 µg/mL
same,"Levofloxacin MIC fold difference, +EPI",[2]; AR-0264,16 fold
same,"Levofloxacin MIC, +EPI",[2]; AR-0264,4 µg/mL
same,Share of CDC isolates with levofloxacin MIC reduced ≥8-fold (potentiated),"[2]; TXA11114 […], PAβN and MC-04,124 50 µg/mL",approximately 85%
same,Share of isolates in which levofloxacin was potentiated,[2]; [9],> 90%
same,Share of strains restored to levofloxacin susceptibility at or below EUCAST breakpoint (≤2 μg/mL),[2]; [9],approximately 60%
same,Reductions in levofloxacin MIC values in many strains,[2]; diverse MDR clinical isolates,4- to 32 fold
same,Levofloxacin MIC in presence of TXA11114,[3],1 µg/mL
same,Frequency of Resistance,[4],<1.00 × 10^−10
same,Frequency of Resistance,"[4]; CDC AR-0248, levofloxacin 4× MIC (64 μg/mL) + TXA11114 […]",<1.47 × 10^−10
same,Frequency of Resistance,"[4]; CDC AR-0249, levofloxacin 4× MIC (256 μg/mL) + TXA11114 […]",<8.77 × 10^−11
same,pIC50,[5],< 4.00
same,pIC50,[6],< 4.00
same,pIC50,[7],< 4.00
same,"Effect of EPI alone on bacterial burden, thigh","[8]; 30 mg/kg, IV, QID",had no impact on bacterial burden
same,Mean Log10 CFU (thigh),[8]; [10],8.95 log10 CFU
same,"Mean Log10 CFU Change vs +2 hr Control, Δlog10 (treatment-baseline), thigh",[8]; [10],2.87 log10 CFU
same,"Mean Log10 CFU Change vs +24 hr Control, thigh",[8]; TXA11114 30 mg/kg IV QID alone,0.13 log10 CFU
same,"CFU reduction by combination, exceeding levofloxacin alone",[8]; murine thigh and lung infection models,> 1 log10 CFU
